Data set [1] concerns the target T1, HCV NS5B polymerase (His-tagged, C-terminal 21 amino acid deleted NS5B, HC-J4) (Hepatitis C virus genotype 1b, UniProt O92972).
T1 construct: The cDNA encoding NS5B amino acid 1-570 (HC-J4, genotype 1b); His tag (His6, from pET-21b) (C); made in house; host or cells: E. coli BL21 (DE3)
The data set is described as follows: NS5b polymerase assay (biochemical RdRp assay, 3H-GTP incorporation, SPA beads). Also noted: species or system HCV genotype 1b. The essentials: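 3H-GTP incorporation into newly made RNA was captured on SPA beads added in EDTA after 2 h at 25 °C. Compounds in DMSO met preformed enzyme–template complex (200 nM truncated His-NS5B, HC-J4 1b; biotin-oligo(rG13)/poly(rC)) for 15 min at RT, then 600 nM GTP, 5 mM MgCl2, Tris pH 7.5 started polymerization.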

For data set [2], the system named is HCV replicon RNA replication in Huh-7 luc/neo (Huh-Luc) cells. In words: HCV replicon assay (stable replicon cell reporter assay, luciferase read-out). The class given is cell-based, HCV type 1b. Particulars: Hepatitis C virus, Huh-7, 72 h. The essentials:
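Three-day compound exposure used Huh-Luc cells, which harbour an autonomously replicating genotype 1b NS3-NS5B replicon expressing luciferase and neo^R. Luciferase signal served as the replication read-out, and dose-response curves came from several concentrations per compound.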
A general note: Replicon systems follow genome replication, usually without infectious particles.

[3] abbreviates: NS5B Polymerase Assay IC50, 200 nM enzyme, 3H-GTP incorporation, 2 h at 25° C.
Where [4] appears, read: read-out: Replicon Assay EC50, Huh-Luc cells, three days incubation, luciferase activity.
The mark [5] stands for this setting: NS5B Polymerase Assay IC50 (μM).
The mark [6] stands for this setting: read-out: Replicon Assay EC50 (μM), Huh-Luc cells, incubation of three days, luciferase activity.

Where two headings read alike, the source gives them in different places.

T1 sequence (O92972 2417-3000, looked up, stated change not applied): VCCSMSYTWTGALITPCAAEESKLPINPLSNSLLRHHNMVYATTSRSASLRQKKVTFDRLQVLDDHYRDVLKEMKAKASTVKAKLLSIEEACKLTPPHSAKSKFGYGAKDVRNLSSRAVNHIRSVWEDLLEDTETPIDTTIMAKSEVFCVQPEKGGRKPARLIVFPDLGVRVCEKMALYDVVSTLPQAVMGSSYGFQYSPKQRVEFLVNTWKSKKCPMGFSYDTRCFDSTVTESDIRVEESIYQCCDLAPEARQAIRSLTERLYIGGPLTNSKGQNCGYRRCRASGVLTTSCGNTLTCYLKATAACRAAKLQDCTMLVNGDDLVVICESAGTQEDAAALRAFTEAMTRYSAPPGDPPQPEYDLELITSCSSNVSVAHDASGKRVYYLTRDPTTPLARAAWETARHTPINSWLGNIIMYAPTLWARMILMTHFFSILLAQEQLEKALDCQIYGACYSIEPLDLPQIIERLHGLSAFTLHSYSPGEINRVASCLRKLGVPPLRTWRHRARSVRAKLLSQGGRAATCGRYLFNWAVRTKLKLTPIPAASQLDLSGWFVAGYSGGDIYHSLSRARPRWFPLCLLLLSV

Broadly, the IC50 is the concentration that inhibits the measured activity by half. Low values mean higher potency, high ones lower potency. For orientation: EC50 means the concentration giving half of the maximal effect. As a reminder, the melting point is the temperature of the solid-liquid transition. Regarding `CC1(C)CC(=O)C2=C(C1)Nc1ccccc1N(C(=O)c1ccccc1)C2c1ccc(Cl)cc1Cl` (stereo not drawn) [compound 45], the melting point is > 250 °C. For the same compound, half-maximal inhibition in data set [1] (setting [3]) (IC50) required 4.83 µM. The 50% effective concentration (EC50) in data set [2] (setting [4]) is 6.79 µM.
The like results for `CC1(C)CC(=O)C2=C(C1)Nc1ccccc1N(C(=O)C(F)(F)F)C2c1ccc(Cl)cc1Cl` (stereo not drawn) [compound 107] were, in that order, > 260 °C, > 133 µM and 11.5 µM.
The matching figures for `CC(=O)N1c2ccccc2NC2=C(C(=O)CC(C)(C)C2)C1c1ccc(C(F)(F)F)cc1` (stereo not drawn) [compound 120]: > 250 °C, > 133 µM and 31.8 µM.
`CC(=O)N1c2ccccc2NC2=C(C(=O)CC(C)(C)C2)C1c1ccc(OCc2ccccc2)c(Cl)c1` (stereo not drawn) [compound 139, 10-acetyl-11-[4-benzyloxy-3-chlorophenyl]-3,3-dimethyl-2,3,4,5,10,11-hexahydro-1H-dibenzo[b,e][1,4]diazepin-1-one] came in with a melting point of 197 °C. For the same compound, in data set [1] (setting [3]), inhibition was half-maximal at 1.01 µM (IC50). Besides, the EC50 in data set [2] (setting [4]) is 2.9 µM.
The matching figures for `CC1(C)CC(=O)C2=C(C1)Nc1ccccc1N(C(=O)CC#N)C2c1ccc(Cl)cc1Cl` (stereo not drawn) [compound 151]: > 260 °C, 1.25 µM and 18.4 µM.
The compound `CC1(C)CC(=O)C2=C(C1)Nc1ccccc1N(C(=O)CCc1ccccc1)C2c1ccc(Cl)cc1Cl` (stereo not drawn) [compound 152] yielded a melting point of 242 °C. Further, in data set [1] (setting [3]), the IC50 turned out to be 24.1 µM. In data set [2] (setting [4]), the EC50 came out at 2.5 µM.
The like results for `CC1(C)CC(=O)C2=C(C1)Nc1ccccc1N(C(=O)c1ccco1)C2c1ccc(Cl)cc1Cl` (stereo not drawn) [compound 153] were, in that order, > 260 °C, 4.05 µM and 18.6 µM.
The matching figures for `CC1(C)CC(=O)C2=C(C1)Nc1ccccc1N(C(=O)Cc1ccccc1)C2c1ccc(Cl)cc1Cl` (stereo not drawn) [compound 154]: > 260 °C, 123 µM and 5.46 µM.
With `CC(C)NC(=O)N1c2ccccc2NC2=C(C(=O)CC(C)(C)C2)C1c1ccc(Cl)cc1Cl` (stereo not drawn) [compound 156], the melting point was > 260 °C. Besides, the IC50 in data set [1] (setting [3]) was 5.15 µM. Besides, the EC50 in data set [2] (setting [4]) came to 6.69 µM.
The like results for `CN(C)c1ccc(NC(=O)N2c3ccccc3NC3=C(C(=O)CC(C)(C)C3)C2c2ccc(Cl)cc2Cl)cc1` (stereo not drawn) [compound 157] were, in that order, 238 °C, 29.5 µM and 1.95 µM.
Regarding `CC(=O)N1c2c(Br)cccc2NC2=C(C(=O)CC(C)(C)C2)C1c1ccc(Cl)cc1Cl` (stereo not drawn) [compound 311], the melting point was > 260 °C. This compound came in with an IC50 in data set [1] (setting [3]) of 13.3 µM. Besides, the EC50 in data set [2] (setting [4]) was 4.03 µM.
The like results for `CC(=O)N1c2c(C#N)cccc2NC2=C(C(=O)CC(C)(C)C2)C1c1ccc(Cl)cc1Cl` (stereo not drawn) [compound 313] were, in that order, 248 °C, 6.04 µM and 27.5 µM.
Regarding `CC(=O)N1c2cccc(C)c2NC2=C(C(=O)CC(C)(C)C2)C1c1ccc(Cl)cc1Cl` (stereo not drawn) [compound 315], the melting point was > 260 °C. This compound displayed an IC50 in data set [1] (setting [3]) of 4.78 µM. For the same compound, in data set [2] (setting [4]), the EC50 came out at 14.6 µM.
The matching figures for `CC(=O)N1c2ccc(C(=O)NCCN3CCOCC3)cc2NC2=C(C(=O)CC(C)(C)C2)C1c1ccc(Cl)cc1Cl` (stereo not drawn) [compound 321, 10-acetyl-N-(morpholin-4-ylethyl)-11-(2,4-dichlorophenyl)-3,3-dimethyl-1-oxo-2,3,4,5,10,11-hexahydro-1H-dibenzo[b,e][1,4]diazepine-7-carboxamide]: > 260 °C, > 133 µM and 72.2 µM.
The like results for `CC(=O)N1c2ccccc2N(Cc2ccccc2)C2=C(C(=O)CC(C)(C)C2)C1c1ccc(Cl)cc1Cl` (stereo not drawn) [compound 323] were, in that order, 235 °C, 53.8 µM and 1.65 µM.
Regarding `Cc1cccc2c1NC(c1ccc(Cl)cc1Cl)C1=C(CC(C)(C)CC1=O)N2` (stereo not drawn) [compound 469], the melting point is 235 °C. In addition, in data set [1] (setting [5]), the IC50 amounted to 32.3 µM. For the same compound, the EC50 in data set [2] (setting [6]) amounted to 8.24 µM.
The matching figures for `CC1(C)CC(=O)C2=C(C1)Nc1cccc(C#N)c1NC2c1ccc(Cl)cc1Cl` (stereo not drawn) [compound 470]: 225 °C, 23.3 µM and 16.5 µM.
The like results for `Cc1cccc2c1NC1=C(C(=O)CC(C)(C)C1)C(c1ccc(Cl)cc1Cl)N2` (stereo not drawn) [compound 471] were, in that order, 225 °C, > 133 µM and 14.7 µM.
The like results for `CC1(C)CC(=O)C2=C(C1)Nc1c(N)cccc1NC2c1ccc(Cl)cc1Cl` (stereo not drawn) [compound 474] were, in that order, 248 °C, 1.72 µM and 34.1 µM.

The values are drawn from patent US20090221559A1 (priority 2005, published 2009).
